Experimental data taken from the supplement of paper PMC10307832.

What was measured:
Assay in all cases: relative viability (nuclei count vs DMSO), 5 days (fraction); higher = more cells survive
Everolimus + OSI-027 = compound: CO[C@H]1C[C@@H]2CC[C@@H](C)[C@@](O)(O2)C(=O)C(=O)N2CCCC[C@H]2C(=O)O[C@H]([C@H](C)C[C@@H]2CC[C@@H](OCCO)[C@H](OC)C2)CC(=O)[C@H](C)/C=C(\C)[C@@H](O)[C@@H](OC)C(=O)[C@H](C)C[C@H](C)/C=C/C=C/C=C/1C [Everolimus] + COc1cccc2cc(-c3nc([C@H]4CC[C@H](C(=O)O)CC4)n4ncnc(N)c34)[nH]c12 [OSI-027] (partner 0.5 µM)
Outline: (§1)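 Nuclei were stained with Hoechst during a one-step fixation (final 0.05% Triton X-100, 1% formaldehyde, 1 ug/ml Hoechst) carried out 5 days after dosing, then counted on 4× images. The cells, lung cancer lines in 1536-well plates, had been dosed by pin tool the day after seeding with one drug alone or a fixed anchor-drug dose plus five library-drug doses (not always all listed) in √10 steps. Relative viability is the nuclei count in treated wells divided by that in vehicle wells, and each value is the median of duplicate plates.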

Everolimus + Crizotinib = compound: CO[C@H]1C[C@@H]2CC[C@@H](C)[C@@](O)(O2)C(=O)C(=O)N2CCCC[C@H]2C(=O)O[C@H]([C@H](C)C[C@@H]2CC[C@@H](OCCO)[C@H](OC)C2)CC(=O)[C@H](C)/C=C(\C)[C@@H](O)[C@@H](OC)C(=O)[C@H](C)C[C@H](C)/C=C/C=C/C=C/1C [Everolimus] + C[C@@H](Oc1cc(-c2cnn(C3CCNCC3)c2)cnc1N)c1c(Cl)ccc(F)c1Cl [Crizotinib] (partner 1 µM)
Outline: as §1

Everolimus + Linsitinib = compound: CO[C@H]1C[C@@H]2CC[C@@H](C)[C@@](O)(O2)C(=O)C(=O)N2CCCC[C@H]2C(=O)O[C@H]([C@H](C)C[C@@H]2CC[C@@H](OCCO)[C@H](OC)C2)CC(=O)[C@H](C)/C=C(\C)[C@@H](O)[C@@H](OC)C(=O)[C@H](C)C[C@H](C)/C=C/C=C/C=C/1C [Everolimus] + C[C@]1(O)C[C@@H](c2nc(-c3ccc4ccc(-c5ccccc5)nc4c3)c3c(N)nccn32)C1 [Linsitinib] (partner 1 µM)
Outline: as §1

Everolimus + Tozasertib = compound: CO[C@H]1C[C@@H]2CC[C@@H](C)[C@@](O)(O2)C(=O)C(=O)N2CCCC[C@H]2C(=O)O[C@H]([C@H](C)C[C@@H]2CC[C@@H](OCCO)[C@H](OC)C2)CC(=O)[C@H](C)/C=C(\C)[C@@H](O)[C@@H](OC)C(=O)[C@H](C)C[C@H](C)/C=C/C=C/C=C/1C [Everolimus] + Cc1cc(Nc2cc(N3CCN(C)CC3)nc(Sc3ccc(NC(=O)C4CC4)cc3)n2)n[nH]1 [Tozasertib] (partner 0.1 µM)
Outline: as §1

Cell Line	relative viability (Everolimus + OSI-027; first compound 0.01 µM)	relative viability (Everolimus + OSI-027; first compound 0.03162 µM)	relative viability (Everolimus + OSI-027; first compound 0.1 µM)	relative viability (Everolimus + OSI-027; first compound 0.3162 µM)	relative viability (Everolimus + OSI-027; first compound 1 µM)	relative viability (Everolimus + Crizotinib; first compound 0.01 µM)	relative viability (Everolimus + Crizotinib; first compound 0.03162 µM)	relative viability (Everolimus + Crizotinib; first compound 0.1 µM)	relative viability (Everolimus + Crizotinib; first compound 0.3162 µM)	relative viability (Everolimus + Crizotinib; first compound 1 µM)	relative viability (Everolimus + Linsitinib; first compound 0.01 µM)	relative viability (Everolimus + Linsitinib; first compound 0.03162 µM)	relative viability (Everolimus + Linsitinib; first compound 0.1 µM)	relative viability (Everolimus + Linsitinib; first compound 0.3162 µM)	relative viability (Everolimus + Linsitinib; first compound 1 µM)	relative viability (Everolimus + Tozasertib; first compound 0.01 µM)	relative viability (Everolimus + Tozasertib; first compound 0.03162 µM)	relative viability (Everolimus + Tozasertib; first compound 0.1 µM)	relative viability (Everolimus + Tozasertib; first compound 0.3162 µM)	relative viability (Everolimus + Tozasertib; first compound 1 µM)
NCI-H2228	0.23	0.295	0.237	0.21	0.265	0.331	0.254	0.281	0.303	0.328	0.272	0.351	0.552	0.249	0.364	0.23	0.244	0.271	0.211	0.137
NCI-H2087	0.356	0.327	0.388	0.49	0.233	1.18	1.01	0.783	0.885	0.922	0.821	1.09	0.765	0.788	0.674	0.256	0.199	0.198	0.218	0.174
LU99A	0.234	0.243	0.245	0.248	0.241	0.415	0.413	0.35	0.451	0.351	0.342	0.345	0.295	0.283	0.334	0.23	0.282	0.252	0.222	0.263
NCI-H1355	0.281	0.258	0.231	0.299	0.241	0.524	0.462	0.46	0.426	0.438	0.412	0.322	0.348	0.349	0.336	0.497	0.398	0.355	0.413	0.32
NCI-H520	0.21	0.179	0.218	0.185	0.193	0.478	0.398	0.426	0.354	0.353	0.533	0.441	0.532	0.343	0.372	0.271	0.28	0.264	0.222	0.239
NCI-H661	0.471	0.44	0.433	0.4	0.511	1.1	1.07	0.977	0.837	0.814	0.473	0.575	0.361	0.319	0.306	0.363	0.368	0.391	0.359	0.376
NCI-H650	0.372	–	0.446	0.392	0.363	0.672	–	0.582	0.588	0.428	0.53	–	0.506	0.512	0.557	0.738	–	0.604	0.589	0.45
NCI-H647	0.363	0.401	0.343	0.449	0.489	0.582	0.771	0.596	0.582	0.709	0.629	0.76	0.58	0.647	0.653	0.28	0.281	0.198	0.344	0.14
201T	0.574	0.549	0.519	0.499	0.509	0.945	0.984	0.926	0.962	0.977	0.805	0.876	0.78	0.78	0.823	0.898	0.913	0.801	0.843	0.906
NCI-H838	0.262	0.252	0.233	0.259	0.334	0.581	0.548	0.416	0.525	0.357	0.329	0.372	0.303	0.326	0.318	0.266	0.258	0.27	0.237	0.245
NCI-H1299	–	–	–	–	–	0.953	0.967	0.968	0.936	1.09	0.855	1	0.544	0.848	0.819	–	–	–	–	–
NCI-H1650	0.489	0.444	0.468	0.484	0.574	0.922	1.06	0.918	1	0.719	–	–	–	–	–	0.46	0.424	0.416	0.445	0.482
NCI-H2342	0.501	0.456	0.431	0.515	0.547	–	–	–	–	–	–	–	–	–	–	0.557	0.4	0.435	0.352	0.407
NCI-H2170	0.464	0.338	0.481	0.422	0.421	0.59	0.587	0.455	0.537	0.49	–	–	–	–	–	0.443	0.428	0.461	0.518	0.399
NCI-H1563	0.628	0.645	0.622	0.693	0.643	0.673	0.654	0.682	0.684	0.692	0.993	0.757	0.766	0.683	0.734	–	–	–	–	–
EBC-1	–	–	–	–	–	0.188	0.17	0.152	0.206	0.185	0.263	0.218	0.306	0.205	0.298	–	–	–	–	–
Calu-6	–	–	–	–	–	0.808	0.692	0.642	0.674	0.748	0.647	0.707	0.663	0.762	0.778	–	–	–	–	–
